Experimental data: patent US20090131354A1, “miR-126 REGULATED GENES AND PATHWAYS AS TARGETS FOR THERAPEUTIC INTERVENTION” (priority 2007, published 2009)

Key:
[1] = system: H226 lung cancer cells; experiment: Alamar Blue proliferation assay, H226; assay type: cell-based, human
Source text: The inventors assessed the therapeutic effect of hsa-miR-126 for lung cancer by using 11 individual lung cancer cell lines. To measure cellular proliferation of lung cancer cells, the following non-small cell lung cancer (NSCLC) cells were used: cells derived from lung adenocarcinoma (A549, H1299, H522, H838, Calu-3, HCC827, HCC2935), cells derived from lung squamous cell carcinoma (H520, H226), cells derived from lung bronchioalveolar carcinoma (H1650), and cells derived from lung large cell carcinoma (H460). Synthetic hsa-miR-126 (Pre-miR™-hsa-miR-126, Ambion cat. no. AM17100) or negative control (NC) miRNA (Pre-miR™ microRNA Precursor Molecule-Negative Control #2; Ambion cat. no. AM17111) was delivered via lipid-based transfection into A549, H1299, H522, H838, Calu-3, HCC827, HCC2935, H520, H1650, and H460 cells, and via electroporation into H226 cells.
Lipid-based reverse transfections were carried out in triplicate according to a published protocol (Ovcharenko et al., 2005) and the following parameters: Cells (5,000-12,000 per 96 well), 0.1-0.2 μl Lipofectamine™ 2000 (cat. no. 11668-019, Invitrogen Corp., Carlsbad, Calif., USA) in 20 μl OptiMEM (Invitrogen), 30 nM final concentration of miRNA in 100 μl. […] Electroporated H226 cells were seeded at 7,000 cells per 96-well in a total volume of 100 μl. All cells except for Calu-3 cells were harvested 72 hours post transfection or electroporation for assessment of cellular proliferation. Calu-3 cells were harvested 10 days post transfection. Proliferation assays were performed using Alamar Blue (Invitrogen) following the manufacturer's instructions. As a control for inhibition of cellular proliferation, siRNA against the motor protein kinesin 11, also known as Eg5, was used. Eg5 is essential for cellular survival of most eukaryotic cells and a lack thereof leads to reduced cell proliferation and cell death (Weil et al., 2002). siEg5 was used in lipid-based transfection following the same experimental parameters that apply to miRNA. […]

[2] = system: H460 lung cancer cells; experiment: Pair-wise miRNA combinations, Alamar Blue proliferation; assay type: cell-based, human; settings: for % proliferation: mock-transfected cells, 48 h
Source text: miRNAs function in multiple pathways controlling multiple cellular processes. Cancer cells frequently show aberrations in several different pathways, which determine their oncogenic properties. […] The inventors assessed the efficacy of pair-wise miRNA combinations, administering hsa-miR-126 concurrently with either hsa-miR-34a, hsa-miR-124a, hsa-miR-147, hsa-let-7b, hsa-let-7c or hsa-let-7g (Pre-miR™ miRNA, Ambion cat. no. AM17100). H460 lung cancer cells were transiently reverse-transfected in triplicates with each miRNA at a final concentration of 300 pM, resulting in 600 pM of oligonucleotide. For negative controls, 600 pM of Pre-miR™ microRNA
Precursor Molecule-Negative Control #2 (Ambion cat. no. AM17111) were used. To correlate the effect of various combinations with the effect of the sole miRNA, each miRNA at 300 pM was also combined with 300 pM negative control miRNA. Reverse transfection was carried using the following parameters: 7,000 cells per 96 well, 0.15 μl Lipofectamine™ 2000 (Invitrogen) in 20 μl OptiMEM (Invitrogen), 100 μl total transfection volume. As an internal control for the potency of miRNA, etoposide was added at 10 μM and 50 μM to mock-transfected cells, 24 hours after transfection for the following 48 hours. Cells were harvested 72 hours after transfection and subjected to Alamar Blue assays (Invitrogen). Percent proliferation values from the Alamar Blue assay were normalized to those obtained from cells treated with 600 pM negative control miRNA. Data are expressed as % proliferation relative to negative control miRNA-treated cells (Table 8).
Additive activity of pair-wise combinations (e.g. hsa-miR-126 plus hsa-let-7b) is defined as an activity that is greater than the sole activity of each miRNA (e.g., the activity of hsa-miR-126 plus hsa-let-7b is greater than that observed for hsa-miR-126 plus NC and the activity of hsa-miR-126 plus hsa-let-7b is greater than that observed for hsa-let-7b plus NC). […]

Compound | % proliferation ([1]; H226, 50 μM, relative to NC miRNA (100%)) [%] | % proliferation ([1]; H226, relative to NC miRNA (100%)) [%] | % proliferation ([2]; H460, 10 μM) [%] | % proliferation ([2]; H460, 50 μM) [%] | % proliferation ([1]; H226, 30 nM, electroporation, 72 h, relative to NC miRNA (100%)) [%] | reduction of proliferation ([2]; H460, 300 pM) [%]
COc1cc([C@@H]2c3cc4c(cc3[C@@H](O[C@@H]3O[C@@H]5CO[C@@H](C)O[C@H]5[C@H](O)[C@H]3O)[C@H]3COC(=O)[C@H]23)OCO4)cc(OC)c1O [etoposide] | 9.33 | 28.17 | 20.19 | 14.94 | – | –
hsa-miR-126 (UCGUACCGUGAGUAAUAAUGC; synthetic pre-miR form, further chemistry not given here) [Synthetic hsa-miR-126 (Pre-miR™-hsa-miR-126, Ambion cat. no. AM17100)] | – | – | – | – | 92.09 | 10.54
